# Patent US11975003B2, “Methods and compositions for treatment of Zika virus infection” (priority 2016, dated 2024)
# Tested on: Zika virus (Malaysia, strain P 6-740)
# Assay: Murine Zika virus model, treatment begun 4 h before infection (Example 3)
# Conditions: for relative virus levels vs placebo: FIG. 4; for weight change in grams between days 7 and 13 post-infection: FIG. 3B
# Protocol: The agents used in this experiment were compound A (the compound of formula I, where A is NH2 and B is H as the HCL salt) and ribavirin. Compound A was administered IM at 150 mg/kg/day and 300 mg/kg/day, each in a volume of 0.05 ml saline and ribavirin was administered IP at 75 mg/kg/day and 50 mg/kg/day, each in a volume of 0.1 ml saline. IM or IP administration of the daily dose was accomplished in two IM/IP injections of one-half the daily dose each. Mice were administered the first dose of Compound A and ribavirin 4 hours prior to infection with Zika virus and continued the treatment for 8 days post-infection.
# In this experiment, Zika virus (Malaysia, strain P 6-740) was administered at a challenge dose of 100 CCID50 (10^3 pfu) per mouse via subcutaneous injection in a 0.1 ml volume.
# Mice were monitored for survival 28 days post-virus challenge. Weight change for individual mice were taken on day 0 and every other day through the end of the experiments. Mice were observed daily for signs of disease including conjunctivitis, hunching, and limb weakness or paralysis.
# For Zika virus infection and antiviral treatment studies, mice were randomly assigned to groups of 10 animals each. A 10^-3 dilution (10^4.0 pfu/mL) of the virus was prepared in MEM. Mice were challenged s.c. with 0.1 mL of the diluted virus (˜10^3.0 pfu/animal). All compound dosages were based on an average mouse weight of 22 g. Compounds were prepared in sterile saline less than 18 hours prior to initial administration in mice and stored at 4° C. for the duration of the study. Compound A was administered i.m., twice daily (bid) at 300 or 150 mg/kg/d. Ribavirin was given i.p., bid at 75 or 50 mg/kg/d. Treatments began 4 hours prior to virus challenge and continued for 8 days. The identity of the treatment groups was blinded to the technician administering treatments. Mortality was observed twice daily for 28 days, and the weight of each mouse was recorded on day 0 and then every other day from 1-19 days post-virus infection (dpi). Mice were humanely euthanized if they could no longer right themselves or were unresponsive to stimuli.
# Fifty to 100 mg of freshly isolated tissue was ground with a pestle in 1 mL TRI Reagent (Sigma-Aldrich, St. Louis, MO) and total RNA was extracted. For the extraction of viral RNA from liquid samples, QlAamp Viral RNA Mini Spin kit was used according to the manufactures instructions (Qiagen, Valencia, CA). Extracted RNA was eluted with nuclease-free water and was amplified by a quantitative real-time RT-PCR using the Logix Smart Zika Test developed by Co-Diagnostics, Inc. (Bountiful, UT). Five μL of the master mix containing a set of primers and Rapid Probe, labeled with a FAM fluorophore and DABCYL quencher, was mixed with 2-5 μL of RNA and an appropriate volume of water for a final reaction volume of 10 μl. RNA was first reverse transcribed for 10 minutes at 55° C., followed by strand separation by heating to 95° C. for 20 seconds. The PCR reaction consisted of 40 cycles at 95° C. for 1 second and 55° C. for 20 seconds. A standard curve was generated with a synthetic RNA spanning the region of amplification and it was used to calculate the number of genome equivalents of the unknown samples.
smiles,measurement,setting,value
Cl.Nc1ncnc2c([C@@H]3N[C@H](CO)[C@@H](O)[C@H]3O)c[nH]c12 [Compound A],relative virus levels vs placebo,150 mg/kg/day IM (group 3),decreased viral levels in a statistically significant manner
same,survival,"150 mg/kg/day IM bid x 8 days, begun -4 h (group 3)",all died by day 27 post-infection
same,mortality curve vs placebo,"150 mg/kg/day IM bid x 8 days, begun -4 h (group 3), p<0.001",delayed the mortality curve
same,percent weight change,"150 mg/kg/day IM, Zika infected (group 3), FIG. 3A",modest weight reduction starting around day 15 post-infection
same,weight change in grams between days 7 and 13 post-infection,150 mg/kg/day IM,weight change similar to that seen in normal controls
same,morbidity in surviving mice 28 days post-infection,300 mg/kg/day IM (group 1),no morbidity was observed
same,weight change in grams between days 7 and 13 post-infection,300 mg/kg/day IM (group 1),weight change similar to that seen in normal controls
same,relative virus levels vs placebo,300 mg/kg/day IM (group 1),decreased viral levels in a statistically significant manner
same,mice survived to day 28 post-infection,"300 mg/kg/day IM bid x 8 days, begun -4 h (group 1), p<0.0001 vs placebo",7/8
same,morbidity or mortality at day 28 in sham-infected mice,"300 mg/kg/day IM bid x 8 days, sham infection (group 2)",No morbidity or mortality
same,percent weight change,"300 mg/kg/day IM, Zika infected (group 1), FIG. 3A",weight change similar to that seen in normal controls
same,percent weight change in sham-infected mice,"300 mg/kg/day IM, sham infection (group 2), FIG. 3A",weight change similar to that seen in normal controls
